Source: patent US20190262323A1, “COMPOSITIONS AND METHODS FOR TREATING NEURODEGENERATIVE DISORDERS” (GEORGETOWN UNIVERSITY, priority 2016, published 2019)

Legend:
Tau [pS396] = test: Human Tau [pS396] solid phase sandwich ELISA on brain tissue homogenates from treated transgenic APP mice; assay type: in vivo
Procedure: Transgenic mice harboring the Swedish, Dutch, and Iowa mutation for human amyloid beta-precursor protein were treated with intraperitoneal (IP) injections of 10 mg/kg, 5 mg/kg, 2.5 mg/kg, 1.25 mg/kg of LCB 03-0110 or 30 μL of dimethylsulfoxide (DMSO) every day for 1 week. LCB 03-0110 is a potent inhibitor of discoidin domain receptor 2 (DDR2) family tyrosine kinases. All animal experiments were conducted in full compliance with the recommendations of Georgetown University Animal Care and Use Committee (GUAUC). Fifteen mice were used for brain and blood extractions, and fifteen mice were used for drug treatments. Four transgenic APP mice were treated with DMSO, four transgenic APP mice were treated with 10 mg/kg of LCB 03-0110, four transgenic APP mice were treated with 5 mg/kg of LCB 03-0110, four transgenic APP mice were treated with 2.5 mg/kg of LCB 03-0110, and three transgenic APP mice were treated with 1.25 mg/kg of LCB 03-0110. Seven transgenic APP mice were treated with DMSO, and 7 transgenic APP mice were treated with 2.5 mg/kg of LCB.
Animals were deeply anesthetized with a mixture of Xylazine and Ketamine (1:8). Whole blood (500 μl) was collected via cardiac puncture and centrifuged at 2000×g to precipitate blood cells. The serum was collected for mass spectrometric analysis. To wash out the remaining blood from vessels and reduce contamination, animals were perfused with 25 ml of 1X phosphate buffered saline (PBS) for 5 min and the brains were collected. A hemisphere was frozen and stored at −80° C. for mass spectrometry studies and the other hemisphere was immediately homogenized in 2.0 ml lysis buffer (containing protease and phosphatase inhibitors) and labeled as a soluble protein fraction.
Human Tau [pS396] solid phase sandwich ELISA was performed on brain tissue homogenates from transgenic APP mice treated with LCB 03-0110 at 10 mg/kg, 5 mg/kg, 2.5 mg/kg, and 1.25 mg/kg. A monoclonal Tau capture antibody was coated onto micro-wells. 50 μl of soluble lysate was added to each well, allowing the Tau [pS396] antigen to bind to the immobilized capture antibody, and incubated for two hours at room temperature. After the two hour incubation, samples were washed and incubated with 100 μl of rabbit monoclonal tau [pS396] detection antibody and incubated for one hour at room temperature. Following extensive washing, a 100 μl of horseradish peroxidase labeled anti-rabbit IgG was added to each well and incubated for thirty minutes at room temperature. Samples were washed to remove all unbound enzyme. […] The magnitude of the absorbance for this developed color was proportional to the quantity of Tau […] proteins in the brain tissue homogenates. […] All statistics were performed using ANOVA with Tukey multiple comparison post-test and data were expressed as Mean±SD.

APP mice = test: Morris water maze; assay type: in vivo; conditions: 2.5 mg/kg for three weeks; by day three of training; average of three trials
Procedure: APP mice treated with either DMSO or 2.5 mg/kg LCB-03-0110 for 3 weeks were trained three times a day to find a submerged platform using visuospatial cues inside the apparatus. […] The mouse was allowed up to 60 seconds to find the platform, after which it would be removed from the apparatus after 5 seconds on the platform. If the animal was unable to find the platform, it was placed on the platform for 20 seconds. […] Data are shown as an average of three trials.

Structure (SMILES): Oc1cccc(Nc2ccnc3cc(-c4cccc(CN5CCOCC5)c4)sc23)c1 [LCB 03-0110, 3-(2-(3-(morpholinomethyl)phenyl)thieno[3,2-b]pyridine-7-ylamino)phenol]
- total Tau levels (Tau [pS396]; 10 mg/kg or less, 12-15 month old APP mice, after one week): does not alter
- level of phosphorylated Tau (pS396) (Tau [pS396]; brain homogenate, 10 mg/kg or less (10, 5, 2.5, 1.25 mg/kg) IP daily for 1 week, vs DMSO): reduces
- ratio of Tau (phosphorylated Tau (pS396)/total Tau) (Tau [pS396]; brain homogenate, 10 mg/kg or less IP daily for 1 week, vs DMSO): reduces
- reducing the ratio of Tau: lower dosages compared with higher dosages (Tau [pS396]; less than 2.5 mg/kg versus greater than 5.0 mg/kg): more effective
- reduction in the average time to find a submerged platform (APP mice): 30%
